Read-outs that look alike come from different tables or passages of the source.
Tests used:
CYP3A4 [1] = test: clinical; conditions: human, in vivo, po; for AUC(0-inf): AUCinf; for AUC(0-inf) / AUC(0-t) / Cmax: N=12; for AUC(0-t): AUClast
CYP3A4 [2] = test system: CYP3A4
[3] = 2 mg, GLSM, midazolam 2 mg single oral dose without RBN-3143 (day 1)
[4] = 2 mg, geometric mean (Geo CV%), midazolam 2 mg single oral dose without RBN-3143 (day 1)
[5] = 2 mg, mean (SD), midazolam 2 mg single oral dose without RBN-3143 (day 1)
[6] = GLSM, midazolam 2 mg single oral dose with RBN-3143 300 mg BID at steady state (day 16)
[7] = geometric mean (Geo CV%), midazolam 2 mg single oral dose with RBN-3143 300 mg BID at steady state (day 16)
[8] = mean (SD), midazolam 2 mg single oral dose with RBN-3143 300 mg BID at steady state (day 16)
[9] = midazolam with RBN-3143 / without RBN-3143 (300 mg BID for 14 days)
[10] = midazolam with RBN-3143 / without RBN-3143 (300 mg BID for 14 days), listed as midazolam

Compound: Cc1ncc2n1-c1ccc(Cl)cc1C(c1ccccc1F)=NC2 [Midazolam, midazolam]
- AUC(0-inf) (CYP3A4 [1]; [3]): 20.8 ng·h/mL
- AUC(0-inf) (CYP3A4 [1]; [4]): 20.8 ng·h/mL
- AUC(0-inf) (CYP3A4 [1]; [5]): 22.2 ng·h/mL
- AUC(0-t) (CYP3A4 [1]; [3]): 19.8 ng·h/mL
- AUC(0-t) (CYP3A4 [1]; [4]): 19.8 ng·h/mL
- AUC(0-t) (CYP3A4 [1]; [5]): 21.2 ng·h/mL
- Cmax (CYP3A4 [1]; [3]): 9.88 ng/mL
- Cmax (CYP3A4 [1]; [4]): 9.87 ng/mL
- Cmax (CYP3A4 [1]; [5]): 10.3 ng/mL
- half-life (CYP3A4 [1]; 2 mg, t1/2, geometric mean (Geo CV%), midazolam 2 mg single oral dose without RBN-3143 (day 1)): 3.05 h
- half-life (CYP3A4 [1]; 2 mg, t1/2, mean (SD), midazolam 2 mg single oral dose without RBN-3143 (day 1)): 3.29 h
- AUC(0-inf) (CYP3A4 [1]; [6]): 18.3 ng·h/mL
- AUC(0-inf) (CYP3A4 [1]; [7]): 18.3 ng·h/mL
- AUC(0-inf) (CYP3A4 [1]; [8]): 19.9 ng·h/mL
- AUC(0-t) (CYP3A4 [1]; [6]): 17.2 ng·h/mL
- AUC(0-t) (CYP3A4 [1]; [7]): 17.2 ng·h/mL
- AUC(0-t) (CYP3A4 [1]; [8]): 18.6 ng·h/mL
- Cmax (CYP3A4 [1]; [6]): 9.11 ng/mL
- Cmax (CYP3A4 [1]; [7]): 9.11 ng/mL
- Cmax (CYP3A4 [1]; [8]): 9.76 ng/mL
- half-life (CYP3A4 [1]; t1/2, geometric mean (Geo CV%), midazolam 2 mg single oral dose with RBN-3143 300 mg BID at steady state (day 16)): 3.09 h
- half-life (CYP3A4 [1]; t1/2, mean (SD), midazolam 2 mg single oral dose with RBN-3143 300 mg BID at steady state (day 16)): 3.49 h
- subjects with decreased exposure to oral midazolam (CYP3A4 [2]; after RBN-3143 300 mg BID to steady-state): 9/12
- increase of midazolam Cmax in 1 subject against the trend (CYP3A4 [2]; in the presence of RBN-3143): 3 fold
- subjects showing increased midazolam AUCinf (CYP3A4 [2]; in the presence of RBN-3143): 3 subjects out of 12
- subjects showing increased midazolam Cmax (CYP3A4 [2]; in the presence of RBN-3143): 2 subjects out of 12
- AUCinf GLSM ratio (90% CI) (CYP3A4 [2]; [9]): … … 0.88 (0.76, 1.01)
- AUClast GLSM ratio (90% CI) (CYP3A4 [2]; [9]): … … 0.87 (0.75, 1.01)
- Cmax GLSM ratio (90% CI) (CYP3A4 [2]; [9]): … … 0.92 (0.74, 1.16)
- AUCinf GLSM ratio (90% CI) (CYP3A4 [2]; [10]): 0.88
- Cmax GLSM ratio (90% CI) (CYP3A4 [2]; [10]): 0.92
